# Measured values taken from patent US20130011376A1, “Methods for Enhancing Natural Killer Cell Proliferation and Activity” (GAMIDA CELL LTD., priority 2009, published 2013).
# Columns and labels:
# Type in all cases: cell-based, human
# [1] = system: cord-blood derived CD56+ cells; assay: Transwell chemotaxis (migration) assay
# Experimental: Chemotaxis (“migration”) assay: Migration response (chemotaxis) of human NK cells was assayed by Transwell migration assay (Costar, Cambridge, Mass.; 6.5-mm diameter, 5-μm pore size). Briefly, 100 μL chemotaxis buffer (RPMI 1640, 1% FCS) containing 2×10^5 NK cells was added to the upper chamber, and 0.5 mL chemotaxis buffer with or without 250 ng/ml stromal-derived factor CXCL12 (“SDF-1”) (R&D Systems) was added to the bottom chamber. Cells migrating within 4 hours to the bottom chamber of the “transwell” were counted for 60 seconds using FACScalibur (Becton Dickinson Immunocytometry Systems).
# [2] = system: peripheral blood-derived, immunobeads-purified CD56+ cells; assay: Assay of CD62L expression on NK cell surface, purified peripheral blood CD56+ cells; settings: 2.5-7.5 mM nicotinamide, 3 weeks in culture
# Experimental: Cultures were initiated with peripheral-blood-derived CD56+ cells purified with immunomagnetic beads and activated with cytokines (including IL-2 and IL-15) with or without nicotinamide (2.5, 5 and 7.5 mM). NK cells were stained with specific antibodies for the specified surface markers (e.g., CD62L) before activation in culture and after 3 weeks incubation with nicotinamide, and then monitored by FACS.
# [3] = system: peripheral blood CD56+ NK cells; assay: Proliferation of peripheral blood CD56+ NK cells co-cultured with irradiated feeder cells; settings: 2.5 mM and 5 mM nicotinamide, day 21, irradiated feeder cells 10:1
# Description: (§1) NK cell cells from total mononuclear cell fraction, purified CD56+ or CD56+CD3− cells from total nuclear or mononuclear cells or from the fraction depleted from CD34+ or CD133+ cells, or CD3+ depleted, or CD3+/CD19+ depleted mononuclear cell fraction from PB, BM and CB can be cultured with irradiated stroma. For the preparation of irradiated stroma (feeder cells), mononuclear cells were irradiated with 3000 rad. After CD56 or CD56+CD3− selection or CD3 depletion the cells were counted and characterized by FACS analysis as described hereinabove. Cells were cultured as described hereinabove, with and without nicotinamide, with and without irradiated stroma at a concentration of irradiated cells of 20×10^5 cells/ml.
# To determine total number of cells on day 7, 14 and 21, the cell count/ml was multiplied by the volume of the culture medium. In order to determine the number of NK cells in culture, the total number of cells in culture was multiplied by the percent of CD56+/CD3− cells measured with the FACS on days 7, 14 or 21. To measure fold expansion, total number of NK cells on days 7, 14 and 21 was divided by total number of NK cells seeded in culture on day-0.
# (§2) Peripheral blood-derived mononuclear cell fractions were CD3 depleted and then selected for CD56+ cells by immunobead purification. […]
# [4] = system: peripheral blood CD56+ NK cells; assay: CXCR4 and CD62L expression on NK cells co-cultured with irradiated mononuclear cells; settings: co-culture with irradiated mononuclear cells, nicotinamide 2.5 and 5 mM
# Description: as §1
# The cells were washed with a PBS solution containing 1% BSA, and stained (at 4° C. for 30 min) with fluorescein isothiocyanate (FITC)- or phycoerythrin (PE)-conjugated antibodies or allophycocyanin (APC). The cells were then washed in the above buffer and analyzed using a FACScalibur® flow cytometer (Becton Dickinson, San Jose, Calif., USA). […] Emission of 10^4 cells was measured using logarithmic amplification, and analyzed using the CellQuest software (Becton Dickinson). Cells stained with FITC, PE and APC-conjugated isotype control antibodies were used to determine background fluorescence. […]
# K562 target cells = assay: Killing assay, NK cells expanded with irradiated feeder cells; settings: 5:1, 2.5:1 and 1:1 NK cells per target cell
# Experimental: “Killing” assay: NK cells (effectors cells=E) are combined with K562 or BL2 (target cells=T), or bi-phenotypic leukemia cells at different E to T ratio (E:T). BL2 or K562, or bi-phenotypic leukemia target cells in PBS were labeled with 1 ng/ml CFSE (Invitrogen) for 15 min at 37° C. Calf Serum was added to the cells for 15 minutes, the cells were then washed and resuspended in RPMI medium. 100 μL of bi-phenotypic leukemia, BL2 or K562 cells were placed in a 96 round bottom plate at a concentration of 5×10^3 cells per well. 100 μL of non-stained NK cells were added to the bi-phenotypic leukemia, BL2 or K562 cells at a E:T ratio of 1:1, 2.5:1, 5:1, 10:1 or 20:1 (5×10^3, 1.25×10^4, 2.5×10^4, 5×10^4 and 1×10^5 cells/well, respectively, as indicated). Between 2-48 hours later. Killing of target cells in cell lines such as K562 and BL-2 was determined by FACS as a percentage propidium-iodine (PI)-positive (dead) CFSE-labeled cells. Killing of the primary leukemia cells was determined by counting with the FACS the number of CFSE stained cells that remained in the culture after their culture with the NK cells. A lower number of CFSE+ cells is indicative of higher level of killing.
# as §2
smiles,measurement,setting,value
NC(=O)c1cccnc1 [nicotinamide],migration in response to SDF stimulus,"[1]; cells cultured with 2.5 or 5 mM nicotinamide, 250 ng/ml SDF",greatly enhanced
same,motility in the absence of SDF stimulus,"[1]; nicotinamide-cultured CD56+ cells, no SDF",enhanced motility
same,expression of CD62L following activation in culture with IL-2,[2],remarkable increase
same,fold increase of NK cells relative to control (cytokines+irradiated mononuclear cells),[3],at least 4 times
same,expression of surface marker CD62L,[4],marked increase
same,expression of surface marker CXCR4,[4],marked increase
same,ex-vivo killing potential,K562 target cells,increased cytotoxic capability
